Data reported in the supplement of paper PMC8149375.

Tests used:
Conditions in all cases: treatment: drug alone; 5 days
[1] = system: ACHN; test: AUC of dose-response viability curve, drug alone (arbitrary (AUC of normalised viability)); higher = less growth inhibition
Experimental: (§1)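 Primary HTS: 8 RCC cell lines treated with 8 doses (up to 10 uM) of each library drug alone for 5 days; viability read by CellTiter-Glo and normalised to DMSO. GI50 was fitted with XLfit (4-parameter), AUC is the area under the dose-response curve, and minimum viability is the lowest fraction of DMSO viability across doses.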

[2] = system: 769-P; test: as above
Experimental: as §1

[3] = system: 786-O; test: as above
Experimental: as §1

[4] = system: UO-31; test: as above
Experimental: as §1

[5] = system: TK-10; test: as above
Experimental: as §1

[6] = system: CAKI-1; test: as above
Experimental: as §1

[7] = system: SN12C; test: as above
Experimental: as §1

[8] = system: A498; test: as above
Experimental: as §1

[9] = system: ACHN; test: GI50, drug alone; higher = less potent
Experimental: as §1

[10] = system: 769-P; test: GI50, drug alone; higher = less potent
Experimental: as §1

[11] = system: 786-O; test: GI50, drug alone; higher = less potent
Experimental: as §1

[12] = system: UO-31; test: GI50, drug alone; higher = less potent
Experimental: as §1

[13] = system: TK-10; test: GI50, drug alone; higher = less potent
Experimental: as §1

[14] = system: CAKI-1; test: GI50, drug alone; higher = less potent
Experimental: as §1

[15] = system: SN12C; test: GI50, drug alone; higher = less potent
Experimental: as §1

[16] = system: A498; test: GI50, drug alone; higher = less potent
Experimental: as §1

[17] = system: ACHN; test: minimum viability across doses, drug alone, relative to DMSO (fraction); higher = less growth inhibition
Experimental: as §1

[18] = system: 769-P; test: as above
Experimental: as §1

[19] = system: 786-O; test: as above
Experimental: as §1

[20] = system: UO-31; test: as above
Experimental: as §1

[21] = system: TK-10; test: as above
Experimental: as §1

[22] = system: CAKI-1; test: as above
Experimental: as §1

[23] = system: SN12C; test: as above
Experimental: as §1

[24] = system: A498; test: as above
Experimental: as §1

Structure (SMILES) | AUC of dose-response viability curve [1] | AUC of dose-response viability curve [2] | AUC of dose-response viability curve [3] | AUC of dose-response viability curve [4] | AUC of dose-response viability curve [5] | AUC of dose-response viability curve [6] | AUC of dose-response viability curve [7] | AUC of dose-response viability curve [8] | GI50, drug alone [9] [µM] | GI50, drug alone [10] [µM] | GI50, drug alone [11] [µM] | GI50, drug alone [12] [µM] | GI50, drug alone [13] [µM] | GI50, drug alone [14] [µM] | GI50, drug alone [15] [µM] | GI50, drug alone [16] [µM] | minimum viability across doses [17] | minimum viability across doses [18] | minimum viability across doses [19] | minimum viability across doses [20] | minimum viability across doses [21] | minimum viability across doses [22] | minimum viability across doses [23] | minimum viability across doses [24]
O=c1cc(-c2cccc3c2Sc2ccccc2S3)oc(N2CCOCC2)c1 | 2.57 | 3.21 | 2.98 | 4 | 3.14 | 3.06 | 3.23 | 3.49 | 0.0705 | > 10 | > 10 | > 10 | > 10 | > 10 | > 10 | > 10 | 0.496 | 0.864 | 0.638 | 0.981 | 0.791 | 0.648 | 0.864 | 0.864
CCN(CCO)CCCOc1ccc2c(Nc3cc(CC(=O)Nc4cccc(F)c4)n[nH]3)ncnc2c1 [Barasertib (AZD1152-HQPA)] | 2.71 | 2.81 | 1.76 | 3.35 | 2.94 | 2.49 | 3.06 | 4.38 | > 10 | 4.36 | 0.194 | > 10 | > 10 | 2.08 | > 10 | > 10 | 0.583 | 0.408 | 0.0818 | 0.767 | 0.703 | 0.449 | 0.74 | 1.04
CC(C)(C)c1nc(-c2cccc(NS(=O)(=O)c3c(F)cccc3F)c2F)c(-c2ccnc(N)n2)s1 | 2.19 | 3.52 | 2.47 | 4.68 | 2.54 | 2.67 | 3.69 | 4.27 | 0.381 | > 10 | 3.87 | > 10 | 5.14 | 0.567 | > 10 | > 10 | 0.115 | 0.842 | 0.463 | 0.75 | 0.447 | 0.163 | 0.942 | 0.91
CCS(=O)(=O)N1CC(CC#N)(n2cc(-c3ncnc4[nH]ccc34)cn2)C1 | 3.17 | 3.62 | 3.07 | 4.72 | 3.09 | 3.58 | 3.36 | 4.43 | > 10 | > 10 | > 10 | > 10 | > 10 | > 10 | > 10 | > 10 | 0.758 | 0.953 | 0.619 | 1.11 | 0.817 | 0.926 | 0.885 | 1.07
Nc1ncnc2c1c(-c1cccc(OCc3ccccc3)c1)cn2[C@H]1C[C@H](CN2CCCC2)C1 [NVP-ADW742] | 2.38 | 3.14 | 2.71 | 3.24 | 2.63 | 3.01 | 3.2 | 3.59 | 3.35 | > 10 | 5.94 | 8.26 | 5.26 | 6.48 | > 10 | 9.56 | 0.275 | 0.478 | 0.19 | 0.0137 | 0.329 | 0.362 | 0.612 | 0.377
Cc1cnc(Nc2ccc(OCCN3CCCC3)cc2)nc1Nc1cccc(S(=O)(=O)NC(C)(C)C)c1 | 2.25 | 3.09 | 2.76 | 3.79 | 2.19 | 2.54 | 2.71 | 3.49 | 0.662 | 3.4 | 1.9 | 2.74 | 0.758 | 1.03 | 2.31 | 5.64 | 0.00347 | 0.0319 | 0.00721 | 0.013 | 0.00422 | 0.00962 | 0.00707 | 0.0772
NCC(=O)Nc1ccc(-n2nc(C(F)(F)F)cc2-c2ccc3c(ccc4ccccc43)c2)cc1 | 3.11 | 2.96 | 2.29 | 2.76 | 2.74 | 3.25 | 3.13 | 3.01 | 4.51 | 3.77 | 1.62 | 0.928 | 4.25 | 4.52 | 4.07 | 3.22 | 0.0447 | 0.0386 | 0.00641 | 0.00932 | 0.326 | 0.0096 | 0.00771 | 0.0189
Oc1cc(O)cc(/C=C/c2ccc(O)c(O)c2)c1 [Piceatannol] | 3.28 | 2.35 | 2.54 | 5.06 | 3.2 | 3.58 | 3.18 | 4.25 | > 10 | > 10 | 2.37 | > 10 | > 10 | 7.74 | > 10 | > 10 | 0.67 | 0.849 | 0.383 | 0.908 | 0.685 | 0.33 | 0.712 | 1.05
CCN1CCN(Cc2ccc(-c3cc4c(N[C@H](C)c5ccccc5)ncnc4[nH]3)cc2)CC1 [AEE788 (NVP-AEE788)] | 2.1 | 2.61 | 3.45 | 3.98 | 2.13 | 2.81 | 2.77 | 3.87 | 0.415 | 1.64 | 8.51 | 7.87 | 0.581 | 3.19 | 4.79 | > 10 | 0.0622 | 0.0865 | 0.108 | 0.0104 | 0.0159 | 0.0495 | 0.276 | 0.898
